Where a name gives a salt, the structure may show the parent alone.
Legend:
SB.msgc-1 [1] = test: viability at highest tested concentration (MAXR) relative to DMSO; higher = less cytotoxic; conditions: SB.msgc-1 (sporadic gastric cancer)
In short: (§1)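 A pintool delivered 23 nL of compound in DMSO to 1536-well plates holding 500 hereditary or sporadic patient-derived gastric cancer cells in 5 μL medium per well, at 11 concentrations in threefold steps. Following 48 h of exposure, cells were treated with CellTiter-Glo for 30 min at room temperature, and plates were read for luminescence on a ViewLux. The reported measure is viability normalised to DMSO, either at the top concentration or as trapezoidal area under the curve.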

SB.mhdgc-1 [2] = test: as above; conditions: SB.mhdgc-1 (hereditary c.1380delA CDH1 gastric cancer)
In short: as §1

SB.msgc-1 [3] = test: area under the dose-response curve of % viability (trapezoidal, 11 doses) (% viability x log10 concentration); higher = less cytotoxic; conditions: SB.msgc-1 (sporadic gastric cancer)
In short: as §1

SB.mhdgc-1 [4] = test: as above; conditions: SB.mhdgc-1 (hereditary c.1380delA CDH1 gastric cancer)
In short: as §1

Structure (SMILES)	viability (SB.msgc-1 [1]) [%]	viability (SB.mhdgc-1 [2]) [%]	area under the dose-response curve (SB.msgc-1 [3])	area under the dose-response curve (SB.mhdgc-1 [4])
O=C1CCc2cc(OCCCCc3nnnn3C3CCCCC3)ccc2N1 [Cilostazol] (top concentration 46.0829 µM)	47.2	91.6	314	510
CC(=O)O[C@@]12CO[C@@H]1C[C@H](O)[C@]3(C)[C@@H]2[C@H](OC(=O)C4=CC=CC=C4)[C@]5(O)C[C@H](OC(=O)C(O)[C@@H](NC(=O)OC(C)(C)C)C6=CC=CC=C6)C(=C(/[C@@H](O)C3=O)C5(C)C)/C (some centres not stated) [Docetaxel] (top concentration 46.0829 µM)	48.6	45.6	245	312
O=C(Oc1ccc([N+](=O)[O-])cc1)N1CCN(Cc2cccc(Oc3ccccc3)c2)CC1 [JZL-195] (top concentration 46.0829 µM)	37.7	31.1	495	445
CN(C)[C@H]\1[C@@H]2[C@@H](O)[C@H]3\C(=C(O)/[C@]2(O)C(=O)\C(=C1O)C(N)=O)C(=O)C4=C(C=CC=C4O)[C@@]3(C)O [Oxytetracycline] (top concentration 46.0829 µM)	82.9	141	539	588
COC1=CC(=CC(=C1)C2=CC=C3N=CC\4=C(N(C(=O)\C=C4)C5=CC(=C(C=C5)N6CCNCC6)C(F)(F)F)C3=C2)OC (top concentration 46.0829 µM)	16.9	2.73	453	376
N=C(N)c1ccc(OCCCCCOc2ccc(C(=N)N)cc2)cc1 [Pentamidine isethionate] (top concentration 46.0829 µM)	10.8	53.8	509	464
COc1ccc2nc3cc(Cl)ccc3c(Nc3cc(CN4CCCC4)c(O)c(CN4CCCC4)c3)c2n1 [Pyronaridine] (top concentration 46.0829 µM)	55.9	88.9	504	595
N#C/C(=C1/Nc2ccccc2S1)c1ccnc(OCc2ccc(CN3CCOCC3)cc2)n1 (top concentration 46.0829 µM)	12.5	5.64	312	267
COc1cc2c(Nc3ccc(NC(=O)c4ccccc4)cc3)ncnc2cc1OCCCN1CCOCC1 (top concentration 46.0829 µM)	43.1	11.7	519	466
NC(=O)c1noc([C@H](CCCC2CCCCC2)CC(=O)NO)n1 (top concentration 46.0829 µM)	69.5	41	563	570
OC(c1cc(C(F)(F)F)nc2c(C(F)(F)F)cccc12)C1CCCCN1 (configuration not stated) [Mefloquine] (top concentration 46.0829 µM)	23.7	4.02	509	461
CCOC(=O)c1cncn1[C@H](C)c1ccccc1 [Etomidate] (top concentration 46.0829 µM)	90.1	107	533	593
NC(=O)c1ccc2[nH]c(-c3ccc(Oc4ccc(Cl)cc4)cc3)nc2c1 (top concentration 46.0829 µM)	56.6	36.4	485	360
CC1(C)Cc2c(sc(NC(=S)NC(=O)c3ccccc3)c2C(=O)O)CO1 (top concentration 46.0829 µM)	47.7	23.8	502	480
O=C1NCCc2[nH]c(-c3ccncc3)cc21 (top concentration 46.0829 µM)	51	79.8	450	472
COc1ccc(Nc2cc(-c3cnc(N)nc3)nc(N3CCOCC3)n2)cn1 [NIBR-17] (top concentration 46.0829 µM)	37.7	37	421	378
c1ccc2[nH]c(-c3cscn3)nc2c1 [Thiabendazole] (top concentration 46.0829 µM)	104	66.9	487	469
CCC(C)SSc1ncc[nH]1 (configuration not stated) [PX-12] (top concentration 46.0829 µM)	4.17	5.12	486	449
COc1cccc2c1[C@]13CCN(CC4CC4)[C@H](C2)[C@]1(OC)CCC(=O)C3 [Cyprodime] (top concentration 46.0829 µM)	112	125	526	567
CCOC(=O)C/1=C(C)/NC(=S)NC1C2=CC=CC(=C2)O (configuration not stated) [Monastrol] (top concentration 46.0829 µM)	48.5	86.2	347	398
CC[C@@]1(O)C(=O)OC\C2=C1\C=C3/N(CC4=CC5=C(C=CC(=C5CN(C)C)O)N=C34)C2=O [Topotecan hydrochloride] (top concentration 46.0829 µM)	26.5	48.2	338	241
CCCCCCCCc1ccc(CCC(N)(CO)CO)cc1 [Fingolimod hydrochloride] (top concentration 46.0829 µM)	0.854	1.7	489	469
COc1cccc2c1C(=O)c1c(O)c3c(c(O)c1C2=O)C[C@@](O)(C(=O)CO)C[C@@H]3O[C@H]1C[C@H](N)[C@H](O[C@H]2CCCCO2)[C@H](C)O1 [Pirarubicin] (top concentration 46.0829 µM)	31.3	22.4	437	367
